Target: T1, human GOAT (Homo sapiens, UniProt Q96T53)
T1 construct: expressed in transfected cells; host or cells: HEK293 (Hek293 hGOAT/PPGhrl Clone #1B8), stably transfected
T1 sequence (Q96T53 1-435): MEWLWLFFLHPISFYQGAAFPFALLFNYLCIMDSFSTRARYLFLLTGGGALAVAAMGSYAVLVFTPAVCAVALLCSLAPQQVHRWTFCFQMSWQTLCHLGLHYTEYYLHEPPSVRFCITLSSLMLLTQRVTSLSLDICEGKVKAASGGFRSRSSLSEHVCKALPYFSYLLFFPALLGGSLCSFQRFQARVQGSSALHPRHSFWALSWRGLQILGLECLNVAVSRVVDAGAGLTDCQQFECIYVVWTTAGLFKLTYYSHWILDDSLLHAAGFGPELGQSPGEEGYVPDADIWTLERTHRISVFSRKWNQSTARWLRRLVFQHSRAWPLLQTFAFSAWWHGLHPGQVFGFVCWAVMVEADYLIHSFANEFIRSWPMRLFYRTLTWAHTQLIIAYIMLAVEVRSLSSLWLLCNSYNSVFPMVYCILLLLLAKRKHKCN
Test: Determination of hGOAT activity in HEK293 cells after incubation with test compound (acyl-ghrelin ELISA)
Format: cell-based
Details: HEK293 cells stably transfected with preproghrelin and human GOAT; octanoate-BSA 100 μM, 5 hours incubation; acyl-ghrelin in medium by ELISA; 8 compound concentrations
Procedure: Determination of hGOAT Activity in HEK293 Cells after Incubation with Test Compound
HEK293 cells stably transfected with two expression vectors, one coding for preproghrelin cDNA and a second for the expression of human GOATcDNA are used as a cellular model. After feeding the cells with octanoic acid for 5 hours, acyl-ghrelin is measured in cell culture medium by an ELISA procedure.
Cellline: Hek293 hGOAT/PPGhrl Clone #1B8 Sodium octanoate, Sigma, Cat.-No. C5038
BD Poly-D-Lysin 384-well Plates, black-clear polystyrene BD Bioscience Cat.-No. […] ELISA human acylated Ghrelin Kit purchased from Bertin Pharman (detailed composition of buffers e.g. wash-puffer, ELISA buffer not known) All further reagents used were of highest analytical grade available.
Cells are plated with a density of 5000 cells/well in 384-well poly-D-lysin plates and incubated for 1 day at 37° C., 5% CO2 in DMEM medium, 10% FCS, 1×NEAA, Puromycin (0.5 μg/ml) and G418 (1 mg/ml). Then the medium is changed to a identical medium without FCS and containing Octanoate-BSA (final concentration 100 μM each) and compound in DMSO (final DMSO concentration 0.3%). After incubation for 5 hours acylghrelin in the medium is measured by ELISA.
The medium sample is diluted 1:25 in Elisa buffer, a 25 μl aliquot is transferred to a 384-well ELISA plate previously washed 4 times with 100 μL wash buffer, and 25 μl tracer-solution is added. After incubation overnight (˜20 h) at 4° C. temperature the plate is washed 4 times with 100 μl wash-buffer per well. Finally 50 μl Ellman's reagent is added to each well and the plate is incubated in the dark for 20 minutes. The absorbance is measured at 405 nm in an Envision multilabel reader and the amount of acylated ghrelin is calculated according to a acylated ghrelin standard curve provided in the same plate.
The analysis of the data is performed by calculation of the percentage of acyl-ghrelin produced in the presence of test compound compared to the amount of acyl-ghrelin produced in the vehicle control samples. An inhibitor of the GOAT enzyme will give values between 100% CTL (no inhibition) and 0% CTL (complete inhibition).
IC50 values are calculated with Assay Explorer or other suited software based on curve fitting of results of 8 different compound concentrations.

Row | SMILES | IC50 [nM]
1 | Cc1nc2nonc2c(N)c1CN1CCC(C(F)F)CC1 [Example 1.1, 6-{[4-(Difluoromethyl)piperidin-1-yl]methyl}-5-methyl-[1,2,5]oxadiazolo[3,4-b]pyridin-7-amine] | 1.3
2 | Cc1nc2nonc2c(N)c1CN1CCC(C#N)CC1 [Example 1.2] | 3.6
3 | Cc1nc2nonc2c(N)c1CN1CCC(S(C)(=O)=O)CC1 [Example 1.3] | 4.1
4 | Cc1nc2nonc2c(N)c1CN1CCC(OC(F)(F)F)CC1 [Example 1.4] | 0.56
5 | Cc1nc2nonc2c(N)c1CN1CCN(C(=O)OC(C)(C)C)CC1 [Example 1.5, tert-Butyl 4-({7-amino-5-methyl-[1,2,5]oxadiazolo[3,4-b]pyridin-6-yl}methyl)piperazine-1-carboxylate] | 0.43
6 | Cc1nc2nonc2c(N)c1CN1CC(C(F)(F)F)C1 [Example 1.6] | 1.9
7 | Cc1nc2nonc2c(N)c1CN1CCC(C(F)(F)F)C1 (centres unmarked) [Example 1.7] | 0.56
8 | Cc1nc2nonc2c(N)c1CN1CCC(c2cccc(C(F)(F)F)c2)C1 (centres unmarked) [Example 1.8] | 1.4
9 | Cc1nc2nonc2c(N)c1CN1CCC(O)(C(F)(F)F)C1 (centres unmarked) [Example 1.9] | 1.1
10 | Cc1nc2nonc2c(N)c1CN1CCC(C(C)(C)O)C1 (centres unmarked) [Example 1.11] | 5
11 | Cc1nc2nonc2c(N)c1CN1CCC(F)(F)C1 [Example 1.12] | 7
12 | Cc1nc2nonc2c(N)c1CN1CCN(S(C)(=O)=O)CC1 [Example 1.13] | 5.2
13 | Cc1nc2nonc2c(N)c1CN1CCN(C(=O)C(F)(F)F)CC1 [Example 2.1, 1-[4-({7-Amino-5-methyl-[1,2,5]oxadiazolo[3,4-b]pyridin-6-yl}methyl)piperazin-1-yl]-2,2,2-trifluoroethan-1-one] | 5.7
14 | Cc1nc2nonc2c(N)c1CN1CCN(S(=O)(=O)C(F)(F)F)CC1 [Example 2.2] | 0.64
15 | Cc1nc2nonc2c(N)c1CN1CCN(C(=O)C2CC2)CC1 [Example 2.3] | 4.2
16 | Cc1nc2nonc2c(N)c1CN1CCN(S(=O)(=O)C2CC2)CC1 [Example 2.4] | 1.8
17 | COC(=O)N1CCN(Cc2c(C)nc3nonc3c2N)CC1 [Example 2.5] | 6.5
18 | Cc1nc2nonc2c(N)c1CN1CCN(S(=O)(=O)C(F)F)CC1 [Example 2.6] | 0.49
19 | Cc1nc2nonc2c(N)c1CN1CCCC(F)(F)C1 [Example 3.1, 6-(3,3-Difluoro-piperidin-1-ylmethyl)-5-methyl-[1,2,5]oxadiazolo[3,4-b]pyridin-7-ylamine] | 7.4
20 | Cc1nc2nonc2c(N)c1CN1CCC(F)(F)CC1 [Example 3.2] | 2.2
21 | Cc1nc2nonc2c(N)c1CN1CCCC(C(F)(F)F)C1 (centres unmarked) [Example 3.3] | 1.7
22 | Cc1nc2nonc2c(N)c1CN1CCC(C(F)(F)F)CC1 [Example 3.4] | 1.3
23 | Cc1nc2nonc2c(N)c1CN1CCOC(C)(c2ccc(F)cc2)C1 (centres unmarked) [Example 3.5] | 4

Source: patent publication US11319310B2, “Heterocyclyl-substituted oxadiazolopyridine derivatives for use as ghrelin O-acyl transferase (GOAT) inhibitors” (Boehringer Ingelheim International GmbH, priority 2018, dated 2022)
